We go through 2 molecules from paper PMC11249953, “c-KIT inhibitors reduce pathology and improve behavior in the Tg(SwDI) model of Alzheimer’s disease” (Life Science Alliance, 2024).

One data set relates to WT mice (C57BL/6). The experiment in a line: Drug tolerability assessment (multiple ascending dose). The settings on record: for maximum tolerable dose: IP daily, multiple ascending dose, WT mice; for therapeutic safe dose in animals: both, C57BL/6, mouse. Format: in vivo. How it is done: 3–4-mo-old WT mice (male and female, C57BL/6) were IP injected with starting doses of 10 mg/kg of BK40143 or BK40197 daily for 5 d before a 2-d washout period. […] BK40197 dosage was increased in 10 mg/kg increments for 5 d each until the maximum tolerable dose of 50 mg/kg was reached. All animal work was approved by GUACUC.

Another data set concerns the target T1, MEK5 (Homo sapiens, UniProt Q13163).
T1 construct: DNA label for qPCR read-out (T7 phage fusion or DNA tag); purchased Eurofins DiscoverX Corporation; host or cells: T7 phage in E. coli (BL21-derived) or HEK-293
T1 sequence (Q13163 1-448): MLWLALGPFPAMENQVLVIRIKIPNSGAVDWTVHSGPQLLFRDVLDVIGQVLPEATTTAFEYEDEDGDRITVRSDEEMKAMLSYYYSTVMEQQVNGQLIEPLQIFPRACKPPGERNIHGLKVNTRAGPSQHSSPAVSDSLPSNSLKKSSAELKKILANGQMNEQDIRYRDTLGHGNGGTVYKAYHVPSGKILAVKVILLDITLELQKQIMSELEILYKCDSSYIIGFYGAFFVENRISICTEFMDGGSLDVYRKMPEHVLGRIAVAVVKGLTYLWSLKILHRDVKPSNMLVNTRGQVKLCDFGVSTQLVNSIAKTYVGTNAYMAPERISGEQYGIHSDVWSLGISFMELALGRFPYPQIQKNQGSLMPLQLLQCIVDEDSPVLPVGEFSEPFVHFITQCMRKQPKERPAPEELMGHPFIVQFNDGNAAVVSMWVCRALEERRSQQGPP
Kind of data set: KINOMEscan competition binding, MEK5. The settings on record: 10 µM compound; for remaining binding at 10 µM: lower = stronger binding, read-out: MEK5 %Ctrl @ 10000nM (POC). How it is done: (§1) The KINOMEscan screening platform (Eurofins DiscoverX Corporation) was performed using active site-directed competition binding assay to quantitatively measure interactions between BK40143 and BK40197 and more than 450 human kinases and disease relevant mutant variants. […] Screening “hits” are identified by measuring the amount of kinase captured in test (BK40143 and BK40197) versus control samples by using a quantitative and ultra-sensitive qRT-PCR method that detects the associated DNA label. BK40143 and BK40197 were screened at 10 µM concentration, and results for primary screen binding interactions were reported as “% Ctrl” (POC), where lower numbers indicate stronger hits and calculated as follows: [test compound signal−positive control signal/negative control signal−positive control signal]×100
(§2) negative control = DMSO (100% Ctrl)
(§3) positive control = control compound (0% Ctrl)
(§4) Based on screening data from of profiled compounds, a proportional relationship between primary screening results and corresponding compound/target affinities can be described as binding constants (Kd values) for the indicated ranges of POC values with tighter binding (higher affinity) interactions associated with lower POC values and weaker binding (lower affinity) associated with higher POC values. Briefly, kinase-tagged T7 phage strains were grown in parallel in 24-well blocks in an E. coli host derived from the BL21 strain. E. coli were grown to log-phase and infected with T7 phage from a frozen stock (multiplicity of infection = 0.4) and incubated with shaking at 32°C until lysis (90–150 min). The lysates were centrifuged (6,000g) and filtered (0.2 μm) to remove cell debris. The remaining kinases were produced in HEK-293 cells and subsequently tagged with DNA for qRT-PCR detection. Streptavidin-coated magnetic beads were treated with biotinylated small molecule ligands for 30 min at RT to generate affinity resins for kinase assays. The liganded beads were blocked with excess biotin and washed with blocking buffer (1% BSA, 0.05% Tween 20, 1 mM DTT; SeaBlock [Pierce]) to remove unbound ligand and to reduce non-specific phage binding. Binding reactions were assembled by combining kinases, liganded affinity beads, and test compounds in 1x binding buffer (20% 0.17x PBS, 0.05% Tween 20, 6 mM DTT; SeaBlock). Test compounds were prepared as 100x stocks in 100% DMSO and directly diluted into the assay. All reactions were performed in polypropylene 384-well plates in a final volume of 0.02 ml. The assay plates were incubated at RT with shaking for 1 h and the affinity beads were washed with wash buffer (1x PBS, 0.05% Tween 20). […] The kinase concentration in the eluates was measured by qRT-PCR.

Another data set deals with T2, FYN (Homo sapiens, UniProt P06241).
T2 construct: DNA label for qPCR read-out (T7 phage fusion or DNA tag); purchased Eurofins DiscoverX Corporation; host or cells: T7 phage in E. coli (BL21-derived) or HEK-293
The experiment in a line: KINOMEscan competition binding, FYN. Conditions: 10 µM compound; for remaining binding at 10 µM: lower = stronger binding, read-out: FYN %Ctrl @ 10000nM. Here is the method: as §1, §2, §3, §4

For the next data set, the target named is T3, RIOK3 (Homo sapiens, UniProt O14730).
T3 construct: DNA label for qPCR read-out (T7 phage fusion or DNA tag); purchased Eurofins DiscoverX Corporation; host or cells: T7 phage in E. coli (BL21-derived) or HEK-293
T3 sequence (O14730 1-519): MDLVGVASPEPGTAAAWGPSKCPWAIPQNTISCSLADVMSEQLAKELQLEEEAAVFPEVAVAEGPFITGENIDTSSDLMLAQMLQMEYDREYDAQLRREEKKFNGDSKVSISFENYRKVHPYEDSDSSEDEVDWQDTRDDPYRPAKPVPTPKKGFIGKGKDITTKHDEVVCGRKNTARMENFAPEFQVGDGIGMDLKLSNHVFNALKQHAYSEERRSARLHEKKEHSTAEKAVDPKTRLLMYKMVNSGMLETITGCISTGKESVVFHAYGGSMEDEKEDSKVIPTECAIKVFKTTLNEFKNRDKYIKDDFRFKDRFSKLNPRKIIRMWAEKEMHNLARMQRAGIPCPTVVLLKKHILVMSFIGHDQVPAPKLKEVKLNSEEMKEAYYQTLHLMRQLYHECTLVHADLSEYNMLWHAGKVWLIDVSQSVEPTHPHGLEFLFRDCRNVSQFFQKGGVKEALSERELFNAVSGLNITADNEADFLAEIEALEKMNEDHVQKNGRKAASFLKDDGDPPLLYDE
The experiment in a line: KINOMEscan competition binding, RIOK3. The settings on record: 10 µM compound; for remaining binding at 10 µM: lower = stronger binding, read-out: RIOK3 %Ctrl @ 10000nM (POC). Here is the method:
as §1, §2, §3, §4

For the next data set, the target named is T4, IRAK1 (Homo sapiens, UniProt P51617).
T4 construct: DNA label for qPCR read-out (T7 phage fusion or DNA tag); purchased Eurofins DiscoverX Corporation; host or cells: T7 phage in E. coli (BL21-derived) or HEK-293
The experiment in a line: KINOMEscan competition binding, IRAK1. Conditions: 10 µM compound; for remaining binding at 10 µM: lower = stronger binding, read-out: IRAK1 %Ctrl @ 10000nM (POC). How it is done: as §1, §2, §3, §4

The next data set has as its target T5, DDR1 (Homo sapiens, UniProt Q08345).
T5 construct: DNA label for qPCR read-out (T7 phage fusion or DNA tag); purchased Eurofins DiscoverX Corporation; host or cells: T7 phage in E. coli (BL21-derived) or HEK-293
The experiment in a line: KINOMEscan competition binding, DDR1. The settings on record: 10 µM compound; for remaining binding at 10 µM: lower = stronger binding, read-out: DDR1 %Ctrl @ 10000nM. Here is the method: as §1, §2, §3, §4

T4 sequence (P51617 whole entry, the tested form may be a part): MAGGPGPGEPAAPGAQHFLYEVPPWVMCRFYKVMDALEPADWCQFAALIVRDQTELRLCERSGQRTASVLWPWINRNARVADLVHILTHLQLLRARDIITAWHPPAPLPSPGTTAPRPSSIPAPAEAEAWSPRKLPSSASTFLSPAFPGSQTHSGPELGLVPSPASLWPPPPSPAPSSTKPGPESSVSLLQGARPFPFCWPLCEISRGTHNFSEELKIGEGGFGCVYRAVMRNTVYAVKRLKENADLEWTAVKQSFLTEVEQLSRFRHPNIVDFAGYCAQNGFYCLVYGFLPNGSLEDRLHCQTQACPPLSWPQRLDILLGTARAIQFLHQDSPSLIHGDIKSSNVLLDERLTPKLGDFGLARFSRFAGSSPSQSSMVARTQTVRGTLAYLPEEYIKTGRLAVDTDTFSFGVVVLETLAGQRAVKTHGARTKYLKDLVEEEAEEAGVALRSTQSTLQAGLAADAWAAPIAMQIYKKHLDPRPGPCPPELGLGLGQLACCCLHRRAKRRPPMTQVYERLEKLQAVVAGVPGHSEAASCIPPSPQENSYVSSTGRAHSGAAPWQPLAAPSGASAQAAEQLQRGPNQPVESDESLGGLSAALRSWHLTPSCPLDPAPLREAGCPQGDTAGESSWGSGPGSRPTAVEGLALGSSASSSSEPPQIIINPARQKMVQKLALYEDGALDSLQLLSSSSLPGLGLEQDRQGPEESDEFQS
T2 sequence (P06241 whole entry, the tested form may be a part): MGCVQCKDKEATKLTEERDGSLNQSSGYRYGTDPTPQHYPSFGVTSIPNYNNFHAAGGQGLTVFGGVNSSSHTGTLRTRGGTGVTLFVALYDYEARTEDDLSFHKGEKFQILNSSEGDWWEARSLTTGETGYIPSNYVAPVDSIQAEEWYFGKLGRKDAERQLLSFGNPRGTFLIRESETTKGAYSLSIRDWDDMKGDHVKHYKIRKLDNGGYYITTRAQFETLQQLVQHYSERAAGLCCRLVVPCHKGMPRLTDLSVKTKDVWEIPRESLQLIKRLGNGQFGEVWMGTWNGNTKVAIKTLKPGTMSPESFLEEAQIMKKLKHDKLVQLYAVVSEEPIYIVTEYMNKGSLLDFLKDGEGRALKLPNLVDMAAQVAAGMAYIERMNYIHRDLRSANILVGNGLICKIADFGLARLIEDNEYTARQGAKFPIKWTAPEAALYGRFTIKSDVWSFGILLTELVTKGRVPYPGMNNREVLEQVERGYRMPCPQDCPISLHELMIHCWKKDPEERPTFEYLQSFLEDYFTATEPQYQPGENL
T5 sequence (Q08345 19-913): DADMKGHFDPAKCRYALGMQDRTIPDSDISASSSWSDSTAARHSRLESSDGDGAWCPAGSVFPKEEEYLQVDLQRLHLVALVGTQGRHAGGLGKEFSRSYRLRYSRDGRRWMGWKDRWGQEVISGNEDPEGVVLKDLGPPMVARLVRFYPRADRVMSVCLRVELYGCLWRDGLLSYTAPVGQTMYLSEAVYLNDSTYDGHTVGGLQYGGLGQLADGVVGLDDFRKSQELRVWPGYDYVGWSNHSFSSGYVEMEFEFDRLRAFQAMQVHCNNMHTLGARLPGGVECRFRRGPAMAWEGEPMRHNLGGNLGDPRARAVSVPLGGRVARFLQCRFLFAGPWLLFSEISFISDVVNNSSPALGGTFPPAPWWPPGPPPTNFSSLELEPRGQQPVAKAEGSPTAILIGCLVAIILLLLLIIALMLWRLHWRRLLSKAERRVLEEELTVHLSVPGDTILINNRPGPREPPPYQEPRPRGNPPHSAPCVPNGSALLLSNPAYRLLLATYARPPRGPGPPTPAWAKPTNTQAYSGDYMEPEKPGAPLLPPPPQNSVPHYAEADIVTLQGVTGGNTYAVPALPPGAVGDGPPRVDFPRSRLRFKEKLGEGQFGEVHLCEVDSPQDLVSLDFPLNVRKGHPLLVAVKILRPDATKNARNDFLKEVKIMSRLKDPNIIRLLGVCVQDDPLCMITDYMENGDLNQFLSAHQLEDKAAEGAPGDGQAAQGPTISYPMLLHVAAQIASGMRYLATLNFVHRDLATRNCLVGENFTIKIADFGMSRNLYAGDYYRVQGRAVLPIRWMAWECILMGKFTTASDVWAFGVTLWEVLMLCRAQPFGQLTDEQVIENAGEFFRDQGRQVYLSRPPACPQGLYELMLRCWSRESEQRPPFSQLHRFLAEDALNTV

A word on the inhibition: it is the share of the control response that was lost under treatment. As to `Cc1cccc(-c2cc3nccc(N4CCOCC4)c3s2)c1` [BK40197], the maximum tolerable dose in the data set with WT mice (C57BL/6) was determined as 45 mg/kg. Further, the “therapeutic safe dose in animals” value with WT mice (C57BL/6) (in vivo) is listed as not above 45 mg/kg. Also, the inhibition at 10 µM came out at 93.1% on MEK5; 44% at FYN; 95.2% at RIOK3; 94.7% on IRAK1; 0% on DDR1. The remaining binding at 10 µM at MEK5 was determined as 6.9%; at FYN it was 56%; on RIOK3 it was 4.8%; at IRAK1 it was 5.3%; at DDR1 it was 100%.

As for `Cc1cccc(-c2cc3nccc(Nc4ccccc4)c3s2)c1` [BK40143], the maximum tolerable dose in the data set on WT mice (C57BL/6) was determined as 7.5 mg/kg. Further, the “therapeutic safe dose in animals” value in the data set on WT mice (C57BL/6) (in vivo) was “up to 7.5 mg/kg”. Further, the “tolerability at starting dose” value in the data set on WT mice (C57BL/6) (mouse, in vivo) was “rodent mortality”. The inhibition at 10 µM at MEK5 came out at 99.7%; at FYN, 90%; at RIOK3, 80%; on IRAK1 it was 54%; on DDR1, 69%. Moreover, the remaining binding at 10 µM at MEK5 turned out to be 0.35%; at FYN, 10%; on RIOK3, 20%; on IRAK1, 46%; on DDR1, 31%.
